Laboratory results reported in patent US9061984B2 (University of Louisville Research Foundation, Inc., priority 2008, dated 2015).
Values after ≈ are worked out from the molar mass of the structure shown. Where two headings read alike, the source gives them in different places.

Experiments:
[1] = Toxicity to peritoneal macrophages (Trypan Blue count); type: cell-based, BALB/C mouse; conditions: BALB/C, mouse
VERO cells [2] = experiment: Cell growth inhibition bioassay (sulforhodamine B); type: cell-based, African Green Monkey; conditions: 48 h, SRB; for GI50: Chlorocebus sabaeus, Vero, read-out: GI50 in indicated cell line: VERO
In short: (§1)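 Cells were exposed to compound alongside matched solvent controls, then stained with sulforhodamine B. Percent growth inhibition was calculated from dye absorbance against the control.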

M. tuberculosis H37Rv [3] = experiment: Conventional aerobic (MABA) culture assay, luminescence MIC; type: cell-based, Mycobacterium tuberculosis; conditions: for MIC: Mycobacterium tuberculosis, 168 h; for Selectivity Index H37Rv: VERO vs MABA MIC
[4] = system: axenic amastigotes of L. amazonensis (strain MHOM/BR/76/LTB-012); experiment: microbe, parasite or virus in culture; conditions: Leishmania amazonensis
[5] = system: axenic amastigotes of L. amazonensis (strain MHOM/BR/76/LTB-012); conditions: Table 8b
[6] = system: Trypanosoma cruzi (Tulahuen C4); experiment: In vitro anti-T. cruzi activity (β-galactosidase CPRG colorimetric assay in VERO monolayer); type: cell-based; conditions: for inhibition at 10 µg/mL / IC50: Trypanosoma cruzi, TULAHUEN, Vero; for inhibition at 10 µg/mL: 120 h, 10 μg/mL of each compound, 120 hours, read-out: T. cruzi Inhib. (%); for Selectivity Index Lab B: IC50, VERO/IC50, T. cruzi
3T3 cells = experiment: Cell growth inhibition bioassay (sulforhodamine B); type: cell-based, mouse; conditions: 48 h, SRB; for GI50: Mus musculus, NIH3T3, read-out: GI50 in indicated cell line: 3T3
In short: as §1

H460 cells = experiment: Cell growth inhibition bioassay (sulforhodamine B); type: cell-based, human; conditions: 48 h, SRB; for GI50: Homo sapiens, NCI-H460, read-out: GI50 in indicated cell line: H460
In short: as §1

HT-29 cells = experiment: Cell growth inhibition bioassay (sulforhodamine B); type: cell-based, human; conditions: 48 h, SRB; for GI50: Homo sapiens, HT-29, read-out: GI50 in indicated cell line: HT-29
In short: as §1

DU145 cells = experiment: Cell growth inhibition bioassay (sulforhodamine B); type: cell-based, human; conditions: 48 h, SRB; for GI50: Homo sapiens, DU-145, read-out: GI50 in indicated cell line: DU145
In short: as §1

MCF-7 cells = experiment: Cell growth inhibition bioassay (sulforhodamine B); type: cell-based, human; conditions: 48 h, SRB; for GI50: Homo sapiens, MCF7, read-out: GI50 in indicated cell line: MCF-7
In short: as §1

M-14 cells = experiment: Cell growth inhibition bioassay (sulforhodamine B); type: cell-based, human; conditions: 48 h, SRB; for GI50: Homo sapiens, M14, read-out: GI50 in indicated cell line: M-14
In short: as §1

K562 cells = experiment: Cell growth inhibition bioassay (sulforhodamine B); type: cell-based, human; conditions: 48 h, SRB; for GI50: Homo sapiens, K562, read-out: GI50 in indicated cell line: K562
In short: as §1

M. tuberculosis MDR = experiment: Anti-tuberculosis bioassay (tetrazolium microplate MIC); type: cell-based; conditions: Mycobacterium tuberculosis, read-out: Mycobacterium MIC MDR
M. tuberculosis H37Rv [7] = experiment: as above; type: cell-based; conditions: Mycobacterium tuberculosis, read-out: Mycobacterium MIC H37Rv, Table 5
peritoneal macrophages = experiment: Toxicity to peritoneal macrophages (Trypan Blue count); type: cell-based, BALB/C mouse
[8] = system: non-replicating persistence Mycobacterium tuberculosis (NRP-TB); experiment: Low oxygen recovery assay (LORA); type: cell-based; conditions: value in brackets
VERO cell = experiment: Cytotoxicity VERO cell (Table 6); conditions: Table 6
VERO cells [9] = experiment: Cytotoxicity on VERO cells (MTT), anti-T. cruzi study; conditions: Lab B
[10] = as above; conditions: African green monkey, VERO cells
[11] = Cytotoxicity VERO cell (Table 6); conditions: African green monkey, VERO cells
[12] = IC50 Cytotoxicity Against Macrophages
[13] = read-out: IC50 Cytotoxicity Against Amastigotes
[14] = Lab A, read-out: T. cruzi IC50 Lab A
[15] = Lab B, read-out: T. cruzi IC50 Lab B

Row | SMILES | IC50 at 48 h ([1]; Cytotoxicity Macrophages IC50) | IC50 at 48 h [1, 12] | GI50 (VERO cells [2]) | MIC (M. tuberculosis H37Rv [3]; aerobic, 7 days, H37Rv) | IC50 [4, 13] | IC50 ([4]; read-out: L. amazonensis IC50) | Selectivity Index [5] | inhibition at 10 µg/mL [6] | GI50 (3T3 cells) | GI50 (H460 cells) | GI50 (HT-29 cells) | GI50 (DU145 cells) | GI50 (MCF-7 cells) | GI50 (M-14 cells) | GI50 (K562 cells) | MIC (M. tuberculosis MDR) | MIC (M. tuberculosis H37Rv [7]) | IC50 [6, 14] | IC50 ([10]; Cytotoxicity VERO Lab B, Lab B) | Selectivity Index H37Rv (M. tuberculosis H37Rv [3]) | further results
1 | O=[N+]([O-])c1ccc(/C=N\Nc2ncnc3sc4c(c23)CCCC4)cc1 [II-22] | 70.4 µM | > 10 µM | > 62.5 µg/mL | > 100 µg/mL | 33.8 µM | 13.6 µM | 5.2 | 11.6% | > 62.5 µg/mL | > 62.5 µg/mL | > 62.5 µg/mL | > 62.5 µg/mL | > 62.5 µg/mL | > 62.5 µg/mL | > 62.5 µg/mL | > 25 µg/mL | > 25 µg/mL | – | – | – | –
2 | FC(F)(F)c1ccccc1C=NNc1ncnc2sc3c(c12)CCCC3 [II-25] | – | – | – | – | – | – | – | – | – | – | – | – | – | – | – | – | – | – | – | – | IC50 (peritoneal macrophages): 1.2 µM; MIC LORA ([8]; anaerobic 10 days, 28 hour recovery): 5.8 µg/mL (≈ 15.4 µM); GI50 in indicated cell line: VERO (VERO cells [2]): 1.7 µg/mL (≈ 4.52 µM); MIC MABA (M. tuberculosis H37Rv [3]; aerobic, 7 days, H37Rv): 5.9 µg/mL (≈ 15.7 µM); Cytotoxicity VERO cell (VERO cell): 7.6 µg/mL; IC50 ([5]; read-out: L. amazonensis IC50): 0.4 µM; T. cruzi IC50 Lab A ([6]; Lab A): 0.5 µg/mL; T. cruzi IC50 Lab B ([6]; Lab B): 5.2 µg/mL; Cytotoxicity VERO Lab B (VERO cells [9]): 3.0; GI50 in indicated cell line: 3T3 (3T3 cells): 6.0 µg/mL (≈ 15.9 µM); GI50 in indicated cell line: H460 (H460 cells): 2.0 µg/mL (≈ 5.31 µM); GI50 in indicated cell line: HT-29 (HT-29 cells): 1.7 µg/mL (≈ 4.52 µM); GI50 in indicated cell line: DU145 (DU145 cells): 1.3 µg/mL (≈ 3.45 µM); GI50 in indicated cell line: MCF-7 (MCF-7 cells): 1.8 µg/mL (≈ 4.78 µM); GI50 in indicated cell line: M-14 (M-14 cells): 2.5 µg/mL (≈ 6.64 µM); GI50 in indicated cell line: K562 (K562 cells): 0.6 µg/mL (≈ 1.59 µM)
3 | COc1cc(/C=N\Nc2ncnc3sc4c(c23)CCCC4)cc(OC)c1OC [II-14] | 3.6 µM | > 10 µM | 9.7 µg/mL (≈ 24.3 µM) | > 100 µg/mL | 10.5 µM | 2.9 µM | 1.2 | 2% | 9 µg/mL (≈ 22.6 µM) | 11.3 µg/mL (≈ 28.4 µM) | 4.6 µg/mL (≈ 11.5 µM) | 9 µg/mL (≈ 22.6 µM) | 4.2 µg/mL (≈ 10.5 µM) | 6.2 µg/mL (≈ 15.6 µM) | 1.9 µg/mL (≈ 4.77 µM) | > 25 µg/mL | > 25 µg/mL | 3 µg/mL (≈ 7.53 µM) | 11 µg/mL (≈ 27.6 µM) | – | –
4 | C(=N/Nc1ncnc2sc3c(c12)CCCC3)/c1ccccc1 [II-01] | 8.7 µM | – | 5.3 µg/mL (≈ 17.2 µM) | 23.4 µg/mL (≈ 75.9 µM) | 3.2 µM | 13.5 µM | 0.6 | 80.1% | 6.7 µg/mL (≈ 21.7 µM) | 5.6 µg/mL (≈ 18.2 µM) | 3.8 µg/mL (≈ 12.3 µM) | 6.2 µg/mL (≈ 20.1 µM) | 3.5 µg/mL (≈ 11.3 µM) | 5.6 µg/mL (≈ 18.2 µM) | 4.1 µg/mL (≈ 13.3 µM) | 6.25 µg/mL (≈ 20.3 µM) | 6.25 µg/mL (≈ 20.3 µM) | 1.9 µg/mL (≈ 6.16 µM) | 8 µg/mL (≈ 25.9 µM) | 0.5 | IC50 [11]: 11.1 µg/mL (≈ 36 µM); Selectivity Index Lab B ([6]; Lab B): 1.8; IC50 [6, 15]: 4.4 µg/mL (≈ 14.3 µM); IC50 ([6]; Table 2, read-out: IC50 - T. cruzi): 3.92 µg/mL (≈ 12.7 µM); IC50 ([10]; IC50 - VERO Cytotoxicity, Table 2): 29 µg/mL (≈ 94 µM)
5 | C/C(=N/Nc1ncnc2sc3c(c12)CCCC3)c1ccccc1 [II-47] | 51.3 µM | – | 9.3 µg/mL (≈ 28.8 µM) | 23.4 µg/mL (≈ 72.6 µM) | – | 9.2 µM | 5.6 | – | 1.7 µg/mL (≈ 5.27 µM) | 5.1 µg/mL (≈ 15.8 µM) | 7.1 µg/mL (≈ 22 µM) | 5.2 µg/mL (≈ 16.1 µM) | 5.3 µg/mL (≈ 16.4 µM) | 6.4 µg/mL (≈ 19.8 µM) | 3.5 µg/mL (≈ 10.9 µM) | – | – | 1.3 µg/mL (≈ 4.03 µM) | 4 µg/mL (≈ 12.4 µM) | 1.4 | MIC ([8]; Mycobacterium tuberculosis, anaerobic 10 days, 28 hour recovery): 2.8 µg/mL (≈ 8.68 µM); Selectivity Index LORA ([8]; VERO vs LORA MIC): 11.5; IC50 [11]: 32.3 µg/mL (≈ 100 µM); Selectivity Index Lab B ([6]; Lab B): 0.9; IC50 [6, 15]: 4.4 µg/mL (≈ 13.6 µM)
